The nature of data set [1]: Flecainide peak plasma concentration (Cmax) versus BMI classification in atrial fibrillation patients. The note with it: atrial fibrillation patients (n=81); 120 mg flecainide acetate via oral inhalation; both conversion and no conversion cohorts. In kind it is in vivo, human. The method, then: Logistic regression was performed to identify predictors of cardioversion success at 90 minutes post-dose, and potential interactions were examined by linear regression.
FIG. 6 is a chart depicting median Cmax versus BMI classification (normal (BMI<25), overweight (BMI≥25 and <30), obese/severe obese (BMI≥30)) in atrial fibrillation patients (n=81) administered 120 mg flecainide acetate via oral inhalation.

Data set [2] is described as follows: Solubility of flecainide acetate in water solution. In kind it is physicochemical.
Data set [3] deals with recent-onset symptomatic AF. Kind of data set: Clinical study: cardioversion of recent-onset atrial fibrillation to sinus rhythm with orally inhaled flecainide. In kind it is in vivo, human. The following applies: 120 mg flecainide acetate (eTLD) by oral inhalation; for conversion rate (AF to sinus rhythm): cardioversion success at 90 minutes post-dose. The procedure: A flecainide acetate oral inhalation solution for acute cardioversion of recent-onset symptomatic AF was administered to 80 patients to determine if height, weight, and body mass index (BMI) are predictors of successful cardioversion of AF to sinus rhythm (SR) with the inhalation solution.
The flecainide formulation used in this study is described in TABLE 1.
In this study, for inhalation delivery of flecainide, an estimated total lung dose (eTLD) of 120 mg were calculated to account for losses of flecainide in the inhalation device and losses of flecainide in subjects' mouth and throat. An 120 mg eTLD was thereby used to denote the dose that actually reached the lungs of the subjects. By design, in all nebulizers there can be a residual volume or mass of drug solution that stays in the nebulizer, and there can also be a percentage of the aerosol caught by subject's throat and mouth. For instance, in this study, it was estimated that 30% of the aerosol was lost in subject's throat and mouth. Therefore the eTLD would be: eTLD=(100-30) %*amount of aerosolized drug that left nebulizer=70%*(amount of drug placed in nebulizer−amount of drug staying in nebulizer).
The AeroEclipse®II BAN inhaler was used for nebulization and inhalation of the exemplary flecainide formulations. It is available as an approved device in several countries across the world including European countries, USA, and Canada. The inhaler is a hand-held, breath actuated, jet nebulizer which operates through a source of compressed air available as medical air in the hospital ER. The AeroEclipse®BAN delivers a high respirable dose and an optimal particle size to reach the deeper lung regions to enable faster drug absorption. Flecainide acetate inhalation solution was transferred from the vial into the reservoir of the AeroEclipse®II BAN at a volume corresponding to the required dose to the lung. To administer an estimated total lung dose of […] flecainide acetate, the nebulizer was filled with 4.2 mL of Formulation A described in TABLE 1. The total volume filled in each dosing cup was based on the assumption of a 70% (v/v) lung deposition, a 12.5% (v/v) loss due to fugitive aerosol based on in-vitro experiments, and device retention of approximately 1.5 mL of the solution.
Participants in the study were administered the study medications according to the following guidelines: • Subject self-administers inhalation using the AeroEclipse® II BAN • Subject is seated upright in a comfortable chair or adjustable bed with table that has adjustable height in front (e.g. overbed table on casters) where the subject can rest his/her arms (e.g. overbed table on casters) from approximately 30 minutes prior to the start of inhalation up to at least 15 minutes after the last inhalation is completed. […]

Usually solubility stands for how much of the substance goes into solution per volume. The low end stands for a poorly soluble substance, the high end for a readily soluble substance. For the molecule `O=C(NCC1CCCCN1)c1cc(OCC(F)(F)F)ccc1OCC(F)(F)F` (stereo not drawn) [flecainide acetate], the “median flecainide peak plasma concentration (Cmax) versus BMI category” value in data set [1] is “positive correlation”. Further, the solubility in data set [2] was ~60 mg/mL. Moreover, the “conversion rate (AF to sinus rhythm)” value came to 43% in data set [3] (obese patients (BMI≥30 and <35 kg/m^2)); 47% in data set [3] (overweight patients (BMI≥25 and <30 kg/m^2)); 53% in data set [3] (patients with normal BMI (<25 kg/m^2)). For the same molecule, the “AF successfully converted to sinus rhythm” value in data set [3] (severely obese patients, 90 minutes post-dose) is “none”.

The record behind these values is patent US20250332152A1, “INHALED THERAPY FOR CARDIAC ARRHYTHMIA” (InCarda Therapeutics, Inc., priority 2021, published 2025).
